Results on three molecules are retold here after ChEMBL document CHEMBL1141752, “Koniamborine, the first pyrano[3,2-b]indole alkaloid and other secondary metabolites from Boronella koniambiensis” (J Nat Prod, 2005).

In the experiment the test system is L1210. Put plainly: Cytotoxicity against mouse L1210 cells. The experiment is classed as functional, cell-based.
As for `COc1ccc2c3occc(=O)c3n(C)c2c1` [KONIAMBORINE], the IC50 (commonly the point on the concentration scale where inhibition reaches its midpoint) is 38.2 µM. This counts as double-digit micromolar.

`CC(C)=CCC/C(C)=C/COc1ccc2ccc(=O)oc2c1CC=C(C)C` gave an IC50 of 15.7 µM.

In the case of `c1cc2c(cc1CC1COCC1Cc1ccc3c(c1)OCO3)OCO2` (stereo not drawn), 72.1 µM corresponded to half-maximal inhibition (IC50).
